{
  "source": "patent US12276657B2",
  "about": "“Detection of PAR in the CSF of patients with Parkinson's disease” (The Johns Hopkins University, priority 2017, dated 2025)",
  "key": {"primary cortical neurons": {"tested_on": "primary cortical neurons", "assay": "Cell death of primary cortical neurons, Hoechst and propidium iodide staining", "type": "cell-based, mouse", "conditions": "for α-syn PFF toxicity (cell death, FIGS. 47 and 48): pre-treated 1 h: ABT-888 10 μM, Z-VAD 20 μM, Nec-1 20 μM, 3-MA 500 μM, α-syn PFF 14 days; for α-syn PFF-mediated cell death (PI staining): inhibitor pre-incubated 1 h (ABT-888 10 μM, AG-014699 1 μM, BMN 673 10 μM), α-syn PFF 5 μg/ml 14 days", "protocol": "SH-SYSY cells (ATCC) were cultured in DMEM containing 10% fetal bovine serum and penicillin/streptomycin at 37° C. under 5% CO2. The cells were transfected using PolyFect reagent (Qiagen) according to the manufacturer's instructions. Primary cortical neurons from WT or PARP1 KO embryos were prepared. Briefly, the primary cortical neurons were cultured at embryonic day 16 in neurobasal media supplemented with B-27, 0.5 mM L-glutamine, penicillin and streptomycin (Invitrogen, Grand Island, NY). The neurons were replaced to fresh medium every 3-4 days. ABT-888 (10 μM), AG-014699 (1 μM), BMN 673 (10 μM), Z-VAD (20 μM), Nec-1 (20 μM) or 3-MA (500 μM) was pretreated to neurons 1 h before α-syn PFF treatment. α-syn PFF were added at 7 days in vitro (DIV) and further incubated for indicated times followed by cell death assay or biochemical experiments. Primary neurons were infected with AAV2-control sgRNA or AAV2-PARP1 sgRNA (ViGene Bioscineces, Rockville, MD, USA), and AAV-α-syn WT or AAV-α-syn A53T at DIV 4-5.\nPercent of cell death was determined by staining with 7 μM Hoechst 33342 and 2 μM propidium iodide (PI) (Invitrogen, Carlsbas, CA). Images were taken and counted by Zeiss microscope equipped with automated computer assisted software (Axiovision 4.6, Carl Zeiss, Dublin, CA, USA)."}, "PARP": {"biological_target": "T1, PARP (Mus musculus, UniProt P11103)", "T1 construct": "Primary cortical neurons from WT or PARP1 KO embryos were prepared; endogenous in cells; host or cells: primary mouse cortical neurons (embryonic day 16)", "T1 sequence (P11103 whole entry)": "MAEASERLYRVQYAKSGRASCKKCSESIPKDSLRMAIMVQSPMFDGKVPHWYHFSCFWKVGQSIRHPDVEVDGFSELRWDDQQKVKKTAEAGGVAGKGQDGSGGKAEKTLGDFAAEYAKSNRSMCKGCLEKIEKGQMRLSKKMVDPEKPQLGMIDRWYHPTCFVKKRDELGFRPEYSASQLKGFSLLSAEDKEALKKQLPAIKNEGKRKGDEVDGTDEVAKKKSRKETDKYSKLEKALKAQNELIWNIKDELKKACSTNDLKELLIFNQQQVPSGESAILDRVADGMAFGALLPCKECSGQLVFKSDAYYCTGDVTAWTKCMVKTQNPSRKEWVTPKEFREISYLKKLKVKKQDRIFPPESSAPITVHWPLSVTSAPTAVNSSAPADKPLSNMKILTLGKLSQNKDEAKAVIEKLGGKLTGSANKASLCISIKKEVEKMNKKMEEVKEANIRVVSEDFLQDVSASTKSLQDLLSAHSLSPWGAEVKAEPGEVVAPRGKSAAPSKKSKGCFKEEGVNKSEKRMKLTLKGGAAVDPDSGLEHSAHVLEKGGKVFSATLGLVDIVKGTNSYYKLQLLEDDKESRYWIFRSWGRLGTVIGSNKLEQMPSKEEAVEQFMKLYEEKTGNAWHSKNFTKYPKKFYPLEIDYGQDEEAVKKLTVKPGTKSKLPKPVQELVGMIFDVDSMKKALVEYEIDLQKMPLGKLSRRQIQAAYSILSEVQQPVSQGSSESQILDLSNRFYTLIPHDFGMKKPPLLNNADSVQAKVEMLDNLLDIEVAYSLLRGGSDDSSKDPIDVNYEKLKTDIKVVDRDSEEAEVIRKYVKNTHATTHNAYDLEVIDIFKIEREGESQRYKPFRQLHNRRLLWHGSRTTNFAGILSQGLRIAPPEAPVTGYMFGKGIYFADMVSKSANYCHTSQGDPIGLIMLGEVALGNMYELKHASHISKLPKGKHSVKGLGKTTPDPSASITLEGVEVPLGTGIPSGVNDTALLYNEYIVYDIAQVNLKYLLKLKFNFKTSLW", "assay": "α-syn PFF-induced PARP activation (PAR accumulation) in primary cortical neurons, western blot", "type": "cell-based", "conditions": "inhibitor pre-incubated 1 h (ABT-888 10 μM, AG-014699 1 μM, BMN 673 10 μM), then α-syn PFF", "method": "After homogenization, samples were rotated at 4° C. for 30 min for complete lysis, the homogenate was centrifuged at 15,000 g for 20 min and the supernatants were used for further analysis. Protein levels were quantified using the BCA assay (Pierce, Rockford, Ill., USA), samples were separated using SDS-polyacrylamide gels and transferred onto nitrocellulose membranes. The membranes were blocked with 5% non-fat milk in TBS-T (Tris-buffered saline with 0.1% TWEEN-20® (Polysorbate 20)) for 1 h, probed using primary antibodies (Table 3) and incubated with appropriate HRP-conjugated secondary antibodies. The bands were visualized by ECL substrate.\nPrimary cortical neurons from WT or PARP1 KO embryos were prepared. Briefly, the primary cortical neurons were cultured at embryonic day 16 in neurobasal media supplemented with B-27, 0.5 mM L-glutamine, penicillin and streptomycin (Invitrogen, Grand Island, NY). The neurons were replaced to fresh medium every 3-4 days. […] Primary neurons were infected with AAV2-control sgRNA or AAV2-PARP1 sgRNA (ViGene Bioscineces, Rockville, MD, USA), and AAV-α-syn WT or AAV-α-syn A53T at DIV 4-5."}, "α-syn [1]": {"tested_on": "α-syn", "assay": "α-syn aggregation and PARP activation in primary cortical neurons transduced with AAV-α-syn (NMDA or PAR delivery)", "type": "cell-based, mouse", "conditions": "for NMDA-induced PARP activation / NMDA-induced α-syn aggregation: 10 μM ABT-888 or 1 μM AG-014699 1 h, then 500 μM NMDA 5 min"}, "SH-SYSY cells": {"tested_on": "SH-SYSY cells", "assay": "α-syn aggregation and PARP activation in SH-SYSY cells transfected with α-syn (MNNG or PAR delivery)", "type": "cell-based", "conditions": "for MNNG-induced PARP activation / MNNG-induced α-syn aggregation: 10 μM ABT-888 or 1 μM AG-014699 1 h, then 50 μM MNNG 15 min"}, "α-syn [2]": {"tested_on": "α-syn", "assay": "In vitro fibrillization of recombinant α-syn (immunoblot, thioflavin T, TEM)", "type": "biochemical, mouse", "conditions": "for α-syn fibrillization with other polymer or monomer: 5 nM, 36 h"}, "WT mice": {"tested_on": "WT mice", "assay": "Intrastriatal injection of PAR-α-syn PFF, α-syn PFF or PAR in WT mice", "type": "in vivo, mouse", "source_text": "There is no significant loss of DA neuron contralateral to the injection side at any time point (FIGS. 81 and 82)."}, "[3]": {"conditions": "WT cultures, 500 μM NMDA 5 min, 6 h after"}},
  "note": "Residues, ends and D or L forms follow the SMILES beside them. *: point of attachment. Cbz = O=C(OCc1ccccc1)*; CH2F = FC*",
  "data": [
    {"compound": "Cn1cnc(N)c2ncnc1-2", "note": "[3-Methyladenine]", "values": [
      {"measurement": "α-syn PFF toxicity (cell death, FIGS. 47 and 48)", "setting": "primary cortical neurons", "result": "had no effect"}
    ]},
    {"compound": "C[C@]1(c2nc3c(C(N)=O)cccc3[nH]2)CCCN1", "note": "[ABT-888, veliparib]", "values": [
      {"measurement": "α-syn PFF-mediated PARP activation", "setting": "PARP", "result": "prevents"},
      {"measurement": "α-syn PFF-mediated cell death (PI staining)", "setting": "primary cortical neurons", "result": "prevents"},
      {"measurement": "α-syn PFF toxicity (cell death, FIGS. 47 and 48)", "setting": "primary cortical neurons", "result": "prevents α-syn PFF toxicity"},
      {"measurement": "NMDA-induced PARP activation", "setting": "α-syn [1]", "result": "prevent"},
      {"measurement": "NMDA-induced α-syn aggregation", "setting": "α-syn [1]", "result": "prevent"},
      {"measurement": "MNNG-induced PARP activation", "setting": "SH-SYSY cells", "result": "prevent"},
      {"measurement": "MNNG-induced α-syn aggregation", "setting": "SH-SYSY cells", "result": "prevent"}
    ]},
    {"compound": "Nc1ncnc2c1ncn2[C@@H]1O[C@H](COP(=O)(O)OP(=O)(O)OC[C@H]2OC(O)[C@H](O)[C@@H]2O)[C@@H](O)[C@H]1O", "note": "(some centres unmarked) [ADP ribose monomer, ADP ribose]", "values": [
      {"measurement": "α-syn fibrillization with other polymer or monomer", "setting": "α-syn [2]; 37° C.", "result": "had no effect on α-syn fibrillization"}
    ]},
    {"compound": "CNCc1ccc(-c2[nH]c3cc(F)cc4c3c2CCNC4=O)cc1", "note": "[AG-014699, Rucaparib]", "values": [
      {"measurement": "α-syn PFF-mediated PARP activation", "setting": "PARP", "result": "prevents"},
      {"measurement": "α-syn PFF-mediated cell death (PI staining)", "setting": "primary cortical neurons", "result": "prevents"},
      {"measurement": "NMDA-induced PARP activation", "setting": "α-syn [1]", "result": "prevent"},
      {"measurement": "NMDA-induced α-syn aggregation", "setting": "α-syn [1]", "result": "prevent"},
      {"measurement": "MNNG-induced PARP activation", "setting": "SH-SYSY cells", "result": "prevent"},
      {"measurement": "MNNG-induced α-syn aggregation", "setting": "SH-SYSY cells", "result": "prevent"}
    ]},
    {"compound": "Cn1ncnc1[C@H]1c2n[nH]c(=O)c3cc(F)cc(c23)N[C@@H]1c1ccc(F)cc1", "note": "[BMN 673, Talazoparib]", "values": [
      {"measurement": "α-syn PFF-mediated PARP activation", "setting": "PARP", "result": "prevents"},
      {"measurement": "α-syn PFF-mediated cell death (PI staining)", "setting": "primary cortical neurons", "result": "prevents"}
    ]},
    {"compound": "CN[C@H](CC(=O)O)C(=O)O", "note": "[NMDA, N-methyl-D-aspartate]", "values": [
      {"measurement": "activation of PARP, PAR immunoblot", "setting": "α-syn [1]; [3]", "result": "leads to activation of PARP"},
      {"measurement": "aggregation of α-syn after NMDA", "setting": "α-syn [1]; [3]", "result": "concomitant aggregation of α-syn"}
    ]},
    {"compound": "CN1C(=O)C(Cc2c[nH]c3ccccc23)NC1=S", "note": "(centres unmarked) [Necrostatin-1]", "values": [
      {"measurement": "α-syn PFF toxicity (cell death, FIGS. 47 and 48)", "setting": "primary cortical neurons", "result": "had no effect"}
    ]},
    {"compound": "COC(=O)C[C@H](NC(=O)[C@H](C)NC(=O)[C@@H](NC(=O)OCc1ccccc1)C(C)C)C(=O)CF", "note": "[Z-VAD-FMK] (Cbz-Val-Ala-Asp(OMe)-CH2F)", "values": [
      {"measurement": "α-syn PFF toxicity (cell death, FIGS. 47 and 48)", "setting": "primary cortical neurons", "result": "partially reduces α-syn PFF toxicity"},
      {"measurement": "α-syn PFF toxicity (cell death, FIGS. 47 and 48)", "setting": "primary cortical neurons; listed as ZVAD", "result": "modest neuroprotection"}
    ]},
    {"compound": "Poly(ADP-ribose) [PAR]", "values": [
      {"measurement": "neuronal cell death by PAR itself", "setting": "primary cortical neurons; 20 nM, 14 days", "result": "does not cause significant cell death"},
      {"measurement": "earliest time different molecular weight forms of α-syn observed", "setting": "α-syn [2]; 5 nM PAR, 37° C.", "result": 24, "unit": "h"},
      {"measurement": "fibrillization of α-syn, immunoblot", "setting": "α-syn [2]; 5 nM PAR, 37° C., agitated", "result": "markedly accelerated"},
      {"measurement": "effect of temperature on α-syn fibrillization", "setting": "α-syn [2]; 5 nM PAR, indicated temperatures, 72 h", "result": "causes the fibrillization of α-syn at temperatures that are not permissive for α-syn fibrillization in the absence of PAR"},
      {"measurement": "PAR concentration of peak α-syn aggregation", "setting": "α-syn [2]; 36 hours", "result": 5, "unit": "nM"},
      {"measurement": "α-syn fibrillization at 1 nM PAR", "setting": "α-syn [2]; 36 hours", "result": "capable of enhancing α-syn fibrillization"},
      {"measurement": "α-syn fibrillization at 20 nM PAR", "setting": "α-syn [2]; 36 hours", "result": "does not appreciably increase α-syn fibrillization"},
      {"measurement": "α-syn fibrils, TEM", "setting": "α-syn [2]; in the presence of PAR, 37° C.", "result": "extensively fibrillated at 12 hours"},
      {"measurement": "thioflavin T fluorescence, PAR alone", "setting": "α-syn [2]; without α-syn", "result": "has no effect on thioflavin T fluorescence"},
      {"measurement": "fibrillization of α-syn, thioflavin T fluorescence", "setting": "α-syn [2]; α-syn with PAR", "result": "accelerates the fibrillization of α-syn"},
      {"measurement": "aggregation of α-syn after exogenous PAR via Bioporter", "setting": "α-syn [1]; WT and PARP-1 KO cultures transduced with AAV-α-syn", "result": "increases the aggregation of α-syn"},
      {"measurement": "aggregation of α-syn after exogenous PAR", "setting": "SH-SYSY cells; SH-SYSY WT and SH-SYSY PARP-1 KO cultures", "result": "increased the aggregation of α-syn"},
      {"measurement": "DA concentration in the contralateral striatum, HPLC", "setting": "WT mice; 1, 3 and 6 months", "result": "no significant difference of DA concentration"},
      {"measurement": "DA neuron number after PAR injection by itself", "setting": "WT mice; 1, 3 and 6 months", "result": "has no effect on DA neuron number"},
      {"measurement": "pole test", "setting": "WT mice; 3 months", "result": "no significant deficits"}
    ]},
    {"compound": "PolyA", "values": [
      {"measurement": "α-syn fibrillization with other polymer or monomer", "setting": "α-syn [2]; 37° C.", "result": "had no effects on α-syn fibrillization"}
    ]}
  ]
}
